For data set [1] the following is noted: human subjects; cited from earlier work.
Another data set concerns LNCaP cells. Nature of the data set: Co-transfection luciferase assay with 10 nM R1881 (Example 2). The format is cell-based, human. The conditions noted are these: charcoal-stripped serum.

Molecules are shown by their SMILES.

Procedure for LNCaP cells: We performed transient transfections 24 hours later using Tfx-50 (Promega) with a lipid:DNA ratio of 4:1. Each transfection mixture contained 0.5 μg of the effector and reporter plasmids or reporter plasmid alone with pGL3B carrier DNA. Methylenetrienolone (R1881; NEN Life Science Products, Boston, Mass.) was added to the medium at a concentration of 10 nM/well one hour following transfection, and the cells were incubated for 48 h. The cells were harvested and lysed using the passive lysis buffer provided in the assay kit for measuring FL activities (Dual-Reporter Luciferase Assay System, Promega).

With `Nc1nc(=O)c2ncn(CCC(CO)C[18F])c2[nH]1` (stereo not drawn) [[^18F]FHBG, 9-(4-[18F]-fluoro-3-hydroxymethylbutyl)guanine], in data set [1], the blood-brain-barrier penetration entry was “does not significantly cross the blood-brain-barrier”.

In the case of `O=c1[nH]c(=O)n([C@@H]2O[C@H](CO)[C@@H](O)[C@@H]2F)cc1[125I]` [[^124I]FIAU, 2′-fluoro-2′-deoxy-1-β-D-arabinofuranosyl-5-iodo-uracil], the blood-brain-barrier penetration result in data set [1] was “cannot penetrate the blood brain barrier”.

For the molecule `CC(O)(CS(=O)(=O)c1ccc(F)cc1)C(=O)Nc1ccc(C#N)c(C(F)(F)F)c1` (stereo not drawn) [casodex, reference compound], the “basal activity of the PSA enhancer constructs” value in the data set with LNCaP cells was “further reduced”.

The record behind these values is patent US7527942B2, “Transcription amplification system for molecular imaging” (The Regents of the University of California, priority 2002, dated 2009).
